In patent publication US10221163B2 (priority 2015, dated 2019):
Read-outs that look alike come from different tables or passages of the source.

Assays:
[1] = system: Pseudomonas aeruginosa efflux+ (MB9798), IMP-1; type: cell-based; conditions: concentration restoring susceptibility to imipenem at 2 μg/mL in the presence of a class A, C, D serine β-lactamase inhibitor closely related to relebactam
Method in brief: (§1)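 PAO1 pair, broth microdilution; fixed β-lactam (imipenem/ceftazidime) at ~CLSI breakpoint + fixed class A/C BLI for AmpC; serial MBLi titration; endpoint = MBLi conc. restoring susceptibility; MB9798:MB9799 ratio = efflux liability.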

[2] = system: Escherichia coli expressing NDM-1 (CLB30005, CLB30016); type: cell-based; conditions: with imipenem 1 μg/ml; 95% inhibition of bacterial growth
Method in brief: (§2)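 Colonies grown overnight on blood agar at 35° C were suspended in saline, diluted 1:100 into 1.1×CAMHB and dispensed. Imipenem was added to 1 μg/ml, then test compound. After 22 hours to 24 hours at 35° C, absorbance was recorded.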

[3] = system: Klebsiella pneumoniae expressing VIM-1 (IHMA599644); type: cell-based; conditions: with imipenem 1 μg/ml; 95% inhibition of bacterial growth
Method in brief: as §2

[4] = system: Serratia marcescens expressing IMP-1 (CL5741); type: cell-based; conditions: with imipenem 1 μg/ml; 95% inhibition of bacterial growth
Method in brief: as §2

[5] = system: Pseudomonas aeruginosa efflux− (MB9799), IMP-1; type: cell-based; conditions: concentration restoring susceptibility to imipenem at 2 μg/mL in the presence of a class A, C, D serine β-lactamase inhibitor closely related to relebactam
Method in brief: as §1

VIM-1 = VIM-1 (Pseudomonas aeruginosa (strain ATCC 15692 / DSM 22644 / CIP 104116 / JCM 14847 / LMG 12228 / 1C / PRS 101 / PAO1), UniProt A0A0F7KYQ8); experiment: biochemical; conditions: CCF2-FA substrate, 30 pM enzyme, 2 hours at 25° C.
Method in brief: (§3)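 Enzyme activity was measured by fluorescence using CCF2-FA, a cephalosporin-linked 7-hydroxycoumarin/fluorescein substrate, with inhibitor, metallo-β-lactamase and substrate incubated together for 2 hours at 25° C. IC50 came from a 4-parameter fit of inhibition versus log inhibitor concentration.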

[6] = system: Pseudomonas aeruginosa MB9798 vs MB9799; conditions: ratio MITC95 PA_9798/MITC95 PA_9799
Method in brief: as §1

NDM-1 = NDM-1 (Klebsiella pneumoniae, UniProt C7C422); experiment: biochemical; type: biochemical; conditions: fluorescence assay, CCF2-FA substrate, 1 pM enzyme, 2 hours at 25° C.; read-out: NDM-1 IC50
NDM-1, sequence (C7C422 whole entry, looked up, species assumed): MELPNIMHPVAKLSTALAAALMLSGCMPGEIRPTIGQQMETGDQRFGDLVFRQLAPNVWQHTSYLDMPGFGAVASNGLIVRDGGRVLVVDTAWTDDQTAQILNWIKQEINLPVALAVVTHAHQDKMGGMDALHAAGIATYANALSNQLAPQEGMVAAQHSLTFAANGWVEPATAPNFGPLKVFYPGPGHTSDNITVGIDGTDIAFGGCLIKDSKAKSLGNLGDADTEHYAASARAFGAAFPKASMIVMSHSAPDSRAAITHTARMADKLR
Method in brief: as §3

IMP-1 = IMP-1 (Serratia marcescens, UniProt P52699); experiment: biochemical; type: biochemical; conditions: fluorescence assay, CCF2-FA substrate, 2 pM enzyme, 2 hours at 25° C.; read-out: IMP-1 IC50
IMP-1, sequence (P52699 whole entry, looked up, species assumed): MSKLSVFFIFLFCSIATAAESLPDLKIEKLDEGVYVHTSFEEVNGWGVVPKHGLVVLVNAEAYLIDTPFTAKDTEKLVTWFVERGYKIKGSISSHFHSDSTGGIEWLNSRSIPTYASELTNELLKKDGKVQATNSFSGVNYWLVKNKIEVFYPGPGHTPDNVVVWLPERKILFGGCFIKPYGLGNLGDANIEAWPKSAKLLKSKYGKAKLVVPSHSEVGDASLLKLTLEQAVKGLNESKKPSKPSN
Method in brief: as §3

[7] = fluorescence assay, read-out: VIM-1 IC50

SMILES: Nc1nc2c(-c3ccc(S(=O)(=O)N[C@]4(CO)CCNC4)c(S(N)(=O)=O)c3-c3nnn[nH]3)cccc2[nH]1 [Example 177, (R)-4-(2-amino-1H-benzo[d]imidazol-4-yl)-N1-(3-(hydroxymethyl)pyrrolidin-3-yl)-3-(1H-tetrazol-5-yl)benzene-1,2-disulfonamide]
- P. aeruginosa expressing IMP-1, efflux + (MB9798) MITC95 [1]: 0.7813 µM
- Escherichia coli expressing NDM-1 (CLB30016) MITC95 [2]: 0.7813 µM
- Klebsiella pneumoniae expressing VIM-1 (IHMA599644) MITC95 [3]: 1.563 µM
- Serratia marcescens expressing IMP-1 (CL5741) MITC95 [4]: 1.563 µM
- P. aeruginosa expressing IMP-1, efflux − (MB9799) MITC95 [5]: 1.563 µM
- IC50 (VIM-1; [7]): 0.246 nM
- Efflux ratio [6]: 0.50
- IC50 (NDM-1): 0.0669 nM
- IC50 (IMP-1): 0.862 nM

SMILES: Nc1nc2c(-c3ccc(S(=O)(=O)N[C@@H]4CCCNC4)c(S(N)(=O)=O)c3-c3nnn[nH]3)cccc2[nH]1 [Example 178, (R)-4-(2-amino-1H-benzo[d]imidazol-4-yl)-N^1-(piperidin-3-yl)-3-(1H-tetrazol-5-yl)benzene-1,2-disulfonamide]
- P. aeruginosa expressing IMP-1, efflux + (MB9798) MITC95 [1]: 1.563 µM
- Escherichia coli expressing NDM-1 (CLB30016) MITC95 [2]: 1.563 µM
- Klebsiella pneumoniae expressing VIM-1 (IHMA599644) MITC95 [3]: 3.125 µM
- Serratia marcescens expressing IMP-1 (CL5741) MITC95 [4]: 1.563 µM
- P. aeruginosa expressing IMP-1, efflux − (MB9799) MITC95 [5]: 1.563 µM
- IC50 (VIM-1; [7]): 0.266 nM
- Efflux ratio [6]: 1.00
- IC50 (NDM-1): 0.064 nM
- IC50 (IMP-1): 0.87 nM

SMILES: Nc1nc2c(-c3ccc(S(=O)(=O)N[C@H]4CCCNC4)c(S(N)(=O)=O)c3-c3nnn[nH]3)cccc2[nH]1 [Example 179, (S)-4-(2-amino-1H-benzo[d]imidazol-4-yl)-N^1-(piperidin-3-yl)-3-(1H-tetrazol-5-yl)benzene-1,2-disulfonamide]
- P. aeruginosa expressing IMP-1, efflux + (MB9798) MITC95 [1]: 3.125 µM
- Escherichia coli expressing NDM-1 (CLB30016) MITC95 [2]: 1.563 µM
- Klebsiella pneumoniae expressing VIM-1 (IHMA599644) MITC95 [3]: 3.125 µM
- Serratia marcescens expressing IMP-1 (CL5741) MITC95 [4]: 3.125 µM
- P. aeruginosa expressing IMP-1, efflux − (MB9799) MITC95 [5]: 1.563 µM
- IC50 (VIM-1; [7]): 0.904 nM
- Efflux ratio [6]: 2.00
- IC50 (NDM-1): 0.219 nM
- IC50 (IMP-1): 3 nM

SMILES: NCCNS(=O)(=O)c1ccc(-c2cc(F)cc3[nH]c(N)nc23)c(-c2nnn[nH]2)c1S(N)(=O)=O [Example 180, 4-(2-amino-6-fluoro-1H-benzo[d]imidazol-4-yl)-N^1-(2-aminoethyl)-3-(1H-tetrazol-5-yl)benzene-1,2-disulfonamide]
- P. aeruginosa expressing IMP-1, efflux + (MB9798) MITC95 [1]: 0.3906 µM
- Escherichia coli expressing NDM-1 (CLB30016) MITC95 [2]: 0.3906 µM
- Klebsiella pneumoniae expressing VIM-1 (IHMA599644) MITC95 [3]: 1.563 µM
- Serratia marcescens expressing IMP-1 (CL5741) MITC95 [4]: 0.7813 µM
- P. aeruginosa expressing IMP-1, efflux − (MB9799) MITC95 [5]: 0.7813 µM
- IC50 (VIM-1; [7]): 0.161 nM
- Efflux ratio [6]: 0.50
- IC50 (NDM-1): 0.0472 nM
- IC50 (IMP-1): 0.387 nM

SMILES: NCCCNS(=O)(=O)c1ccc(-c2cccc3[nH]c(N)nc23)c(-c2nn[nH]n2)c1S(N)(=O)=O [Example 182, 4-(2-amino-1H-benzo[d]imidazol-4-yl)-N1-(3-aminopropyl)-3-(2H-tetrazol-5-yl)benzene-1,2-disulfonamide]
- P. aeruginosa expressing IMP-1, efflux + (MB9798) MITC95 [1]: 0.3438 µM
- Escherichia coli expressing NDM-1 (CLB30016) MITC95 [2]: 0.2578 µM
- Klebsiella pneumoniae expressing VIM-1 (IHMA599644) MITC95 [3]: 0.6875 µM
- Serratia marcescens expressing IMP-1 (CL5741) MITC95 [4]: 0.5573 µM
- P. aeruginosa expressing IMP-1, efflux − (MB9799) MITC95 [5]: 0.4271 µM
- IC50 (VIM-1; VIM-1 IC50, fluorescence assay): 0.0904 nM
- Efflux ratio [6]: 0.80
- IC50 (NDM-1): 0.0393 nM
- IC50 (IMP-1): 0.453 nM

SMILES: Cn1c(N)nc2c(-c3ccc(S(=O)(=O)NCCCN)c(S(N)(=O)=O)c3-c3nn[nH]n3)cccc21 [Example 183, 4-(2-amino-1-methyl-1H-benzo[d]imidazol-4-yl)-N^1-(3-aminopropyl)-3-(2H-tetrazol-5-yl)benzene-1,2-disulfonamide]
- P. aeruginosa expressing IMP-1, efflux + (MB9798) MITC95 [1]: 0.7813 µM
- Escherichia coli expressing NDM-1 (CLB30016) MITC95 [2]: 0.3906 µM
- Klebsiella pneumoniae expressing VIM-1 (IHMA599644) MITC95 [3]: 0.7813 µM
- Serratia marcescens expressing IMP-1 (CL5741) MITC95 [4]: 0.7813 µM
- P. aeruginosa expressing IMP-1, efflux − (MB9799) MITC95 [5]: 0.7813 µM
- IC50 (VIM-1; [7]): 0.11 nM
- Efflux ratio [6]: 1.00
- IC50 (NDM-1): 0.0539 nM
- IC50 (IMP-1): 0.338 nM

SMILES: C[C@H](N)CNS(=O)(=O)c1ccc(-c2cccc3[nH]c(N)nc23)c(-c2nn[nH]n2)c1S(N)(=O)=O [Example 184, 4-(2-amino-1H-benzo[d]imidazol-4-yl)-N1-((S)-2-aminopropyl)-3-(2H-tetrazol-5-yl)benzene-1,2-disulfonamide]
- P. aeruginosa expressing IMP-1, efflux + (MB9798) MITC95 [1]: 0.7813 µM
- Escherichia coli expressing NDM-1 (CLB30016) MITC95 [2]: 0.3906 µM
- Klebsiella pneumoniae expressing VIM-1 (IHMA599644) MITC95 [3]: 0.7813 µM
- Serratia marcescens expressing IMP-1 (CL5741) MITC95 [4]: 0.7813 µM
- P. aeruginosa expressing IMP-1, efflux − (MB9799) MITC95 [5]: 0.7813 µM
- IC50 (VIM-1; [7]): 0.189 nM
- Efflux ratio [6]: 1.00
- IC50 (NDM-1): 0.0347 nM
- IC50 (IMP-1): 0.673 nM

SMILES: C[C@@H](N)CNS(=O)(=O)c1ccc(-c2cccc3[nH]c(N)nc23)c(-c2nn[nH]n2)c1S(N)(=O)=O [Example 185, 4-(2-amino-1H-benzo[d]imidazol-4-yl)-N1-((R)-2-aminopropyl)-3-(2H-tetrazol-5-yl)benzene-1,2-disulfonamide]
- P. aeruginosa expressing IMP-1, efflux + (MB9798) MITC95 [1]: 0.3844 µM
- Escherichia coli expressing NDM-1 (CLB30016) MITC95 [2]: 0.2135 µM
- Klebsiella pneumoniae expressing VIM-1 (IHMA599644) MITC95 [3]: 1.025 µM
- Serratia marcescens expressing IMP-1 (CL5741) MITC95 [4]: 0.7688 µM
- P. aeruginosa expressing IMP-1, efflux − (MB9799) MITC95 [5]: 0.5906 µM
- IC50 (VIM-1; [7]): 0.19 nM
- Efflux ratio [6]: 0.65
- IC50 (NDM-1): 0.0476 nM
- IC50 (IMP-1): 0.524 nM

SMILES: C[C@@H](CN)NS(=O)(=O)c1ccc(-c2cccc3[nH]c(N)nc23)c(-c2nn[nH]n2)c1S(N)(=O)=O [Example 186]
- P. aeruginosa expressing IMP-1, efflux + (MB9798) MITC95 [1]: 1.563 µM
- Escherichia coli expressing NDM-1 (CLB30016) MITC95 [2]: 0.7813 µM
- Klebsiella pneumoniae expressing VIM-1 (IHMA599644) MITC95 [3]: 1.563 µM
- Serratia marcescens expressing IMP-1 (CL5741) MITC95 [4]: 1.563 µM
- P. aeruginosa expressing IMP-1, efflux − (MB9799) MITC95 [5]: 0.7813 µM
- IC50 (VIM-1; VIM-1 IC50, fluorescence assay): 0.901 nM
- Efflux ratio [6]: 2.00
- IC50 (NDM-1): 0.366 nM
- IC50 (IMP-1): 4.09 nM

SMILES: C[C@H](CN)NS(=O)(=O)c1ccc(-c2cccc3[nH]c(N)nc23)c(-c2nn[nH]n2)c1S(N)(=O)=O [Example 187, 4-(2-amino-1H-benzo[d]imidazol-4-yl)-N^1—((R)-1-aminopropan-2-yl)-3-(2H-tetrazol-5-yl)benzene-1,2-disulfonamide]
- P. aeruginosa expressing IMP-1, efflux + (MB9798) MITC95 [1]: 0.3906 µM
- Escherichia coli expressing NDM-1 (CLB30016) MITC95 [2]: 0.5859 µM
- Klebsiella pneumoniae expressing VIM-1 (IHMA599644) MITC95 [3]: 1.172 µM
- Serratia marcescens expressing IMP-1 (CL5741) MITC95 [4]: 0.7813 µM
- P. aeruginosa expressing IMP-1, efflux − (MB9799) MITC95 [5]: 0.7813 µM
- IC50 (VIM-1; VIM-1 IC50, fluorescence assay): 0.0982 nM
- Efflux ratio [6]: 0.50
- IC50 (NDM-1): 0.0212 nM
- IC50 (IMP-1): 0.23 nM

SMILES: NC(=O)[C@H](N)CNS(=O)(=O)c1ccc(-c2cccc3[nH]c(N)nc23)c(-c2nn[nH]n2)c1S(N)(=O)=O [Example 188, (2R)-2-amino-3-(4-(2-amino-1H-benzo[d]imidazol-4-yl)-2-sulfamoyl-3-(2H-tetrazol-5-yl)phenylsulfonamido)propanamide]
- P. aeruginosa expressing IMP-1, efflux + (MB9798) MITC95 [1]: 0.7813 µM
- Escherichia coli expressing NDM-1 (CLB30016) MITC95 [2]: 1.563 µM
- Klebsiella pneumoniae expressing VIM-1 (IHMA599644) MITC95 [3]: 3.125 µM
- Serratia marcescens expressing IMP-1 (CL5741) MITC95 [4]: 1.563 µM
- P. aeruginosa expressing IMP-1, efflux − (MB9799) MITC95 [5]: 1.563 µM
- IC50 (VIM-1; [7]): 0.213 nM
- Efflux ratio [6]: 0.50
- IC50 (NDM-1): 0.0756 nM
- IC50 (IMP-1): 0.613 nM

SMILES: NC(=O)[C@@H](N)CNS(=O)(=O)c1ccc(-c2cccc3[nH]c(N)nc23)c(-c2nn[nH]n2)c1S(N)(=O)=O [Example 189, (2S)-2-amino-3-(4-(2-amino-1H-benzo[d]imidazol-4-yl)-2-sulfamoyl-3-(2H-tetrazol-5-yl)phenylsulfonamido)propanamide]
- P. aeruginosa expressing IMP-1, efflux + (MB9798) MITC95 [1]: 0.7813 µM
- Escherichia coli expressing NDM-1 (CLB30016) MITC95 [2]: 0.7813 µM
- Klebsiella pneumoniae expressing VIM-1 (IHMA599644) MITC95 [3]: 3.125 µM
- Serratia marcescens expressing IMP-1 (CL5741) MITC95 [4]: 1.563 µM
- P. aeruginosa expressing IMP-1, efflux − (MB9799) MITC95 [5]: 1.563 µM
- IC50 (VIM-1; [7]): 0.216 nM
- Efflux ratio [6]: 0.50
- IC50 (NDM-1): 0.0718 nM
- IC50 (IMP-1): 0.615 nM
